US8791267B2, “Biaryl PDE4 inhibitors for treating inflammatory, cardiovascular and CNS disorders” (Decode Genetics EHF, priority 2007, dated 2014)
Structures can show the parent of a compound that is named as a salt. Where two headings read alike, the source gives them in different places.

Key:
PDE4 = PDE4 (Homo sapiens, UniProt Q08499); experiment: In-vitro assay for PDE4 enzymes, real-time enzyme-coupled spectrophotometric assay (Table 9); assay type: biochemical
PDE4B = PDE4B (Homo sapiens, UniProt Q07343); experiment: In-vitro assay for PDE4 enzymes, real-time enzyme-coupled spectrophotometric assay, PDE4B Activity (Table 10); assay type: biochemical
Chain of PDE4B (Q07343 whole entry): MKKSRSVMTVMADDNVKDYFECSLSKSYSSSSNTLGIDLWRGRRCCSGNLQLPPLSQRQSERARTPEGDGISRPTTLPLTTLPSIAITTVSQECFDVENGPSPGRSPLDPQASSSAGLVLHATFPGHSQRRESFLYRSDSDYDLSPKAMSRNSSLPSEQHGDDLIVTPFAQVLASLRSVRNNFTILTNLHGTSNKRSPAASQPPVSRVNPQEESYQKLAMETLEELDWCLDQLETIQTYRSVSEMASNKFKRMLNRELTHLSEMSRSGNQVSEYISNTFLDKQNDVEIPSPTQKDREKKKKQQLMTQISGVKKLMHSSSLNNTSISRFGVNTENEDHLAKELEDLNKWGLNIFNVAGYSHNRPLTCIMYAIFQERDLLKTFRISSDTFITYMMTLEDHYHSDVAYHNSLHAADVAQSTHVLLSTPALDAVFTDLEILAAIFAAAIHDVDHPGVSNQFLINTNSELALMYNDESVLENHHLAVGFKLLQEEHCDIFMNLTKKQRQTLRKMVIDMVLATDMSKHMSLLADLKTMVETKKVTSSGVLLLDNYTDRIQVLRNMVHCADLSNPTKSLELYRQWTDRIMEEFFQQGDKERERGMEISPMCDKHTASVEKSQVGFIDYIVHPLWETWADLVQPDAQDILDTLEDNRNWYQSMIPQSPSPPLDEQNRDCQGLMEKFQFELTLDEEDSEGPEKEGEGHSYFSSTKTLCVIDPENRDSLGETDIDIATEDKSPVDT

[1] = human PDE4D, activity class, Table 9, read-out: hPDE4D
[2] = human PDE4B (hPDE4B), enzyme-coupled spectrophotometric assay, read-out: PDE4B Activity, hPDE4B

Chain of PDE4 (Q08499 whole entry): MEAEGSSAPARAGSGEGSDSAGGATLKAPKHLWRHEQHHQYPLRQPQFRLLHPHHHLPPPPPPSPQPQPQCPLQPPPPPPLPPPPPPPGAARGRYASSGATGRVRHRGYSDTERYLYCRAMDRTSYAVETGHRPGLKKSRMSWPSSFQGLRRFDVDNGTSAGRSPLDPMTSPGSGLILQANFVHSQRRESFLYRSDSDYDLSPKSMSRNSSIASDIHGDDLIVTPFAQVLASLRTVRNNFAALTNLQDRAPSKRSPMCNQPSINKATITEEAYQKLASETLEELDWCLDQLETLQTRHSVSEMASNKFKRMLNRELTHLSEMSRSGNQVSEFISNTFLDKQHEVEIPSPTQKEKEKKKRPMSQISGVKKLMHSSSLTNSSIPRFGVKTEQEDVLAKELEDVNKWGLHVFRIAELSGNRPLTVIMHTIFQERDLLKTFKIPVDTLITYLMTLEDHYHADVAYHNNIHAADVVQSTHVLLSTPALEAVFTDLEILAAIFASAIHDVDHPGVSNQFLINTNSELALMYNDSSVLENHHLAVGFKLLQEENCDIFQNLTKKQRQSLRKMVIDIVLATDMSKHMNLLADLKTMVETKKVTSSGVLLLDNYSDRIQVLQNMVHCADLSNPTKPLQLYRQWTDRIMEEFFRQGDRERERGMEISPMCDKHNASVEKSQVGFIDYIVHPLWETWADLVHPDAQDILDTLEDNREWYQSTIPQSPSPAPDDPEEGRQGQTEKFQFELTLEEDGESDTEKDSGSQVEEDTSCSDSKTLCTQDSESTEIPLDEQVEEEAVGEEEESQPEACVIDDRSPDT

Row | Structure (SMILES) | IC50 (PDE4; [1]) [µM] | IC50 (PDE4B; [2]) [µM] | IC50 (PDE4) [µM] | IC50 (PDE4B) [µM]
1 | CCOC(=O)Nc1ccc(Cc2ccc(OC)c(-c3cccc(C#N)c3)c2F)cn1 [P-398, [5-(3′-Cyano-2-fluoro-6-methoxy-biphenyl-3-ylmethyl)-pyridin-2-yl]-carbamic acid ethyl ester] | < 5 | < 5 | – | –
2 | COc1ccc(CN2CCCC2=O)cc1-c1cccc(Cl)c1 [P-218, 1-(3′-chloro-6-methoxy-biphenyl-3-ylmethyl)-pyrrolidin-2-one] | < 5 | < 5 | – | –
3 | CCNC(=O)Nc1ncc(Cc2ccc(OC)c(-c3cccc(C#N)c3)c2F)cn1 [P-399, 1-[5-(3′-Cyano-2-fluoro-6-methoxy-biphenyl-3-ylmethyl)-pyrimidin-2-yl]-3-ethyl-urea] | < 5 | < 5 | – | –
4 | COc1ccc(CN2C(=O)CCC2=O)cc1-c1ccc2c(c1)OCO2 [P-053, 1-(3-Benzo[1,3]dioxol-5-yl-4-methoxy-benzyl)-pyrrolidine-2,5-dione] | 5 to 20 | 21 to 40 | – | –
5 | COc1ccc(Cc2ccc(NCCO)nc2)c(F)c1-c1cccc(Cl)c1 [P-411] | < 5 | < 5 | – | –
6 | COc1ccc(Cc2ccc(NS(C)(=O)=O)cc2)c(F)c1-c1cccc(Cl)c1 [P-227] | < 5 | < 5 | – | –
7 | COc1ccc(Cc2ccc(F)cc2)c(F)c1-c1cccc([N+](=O)[O-])c1 [P-050] | < 5 | < 5 | – | –
8 | COc1ccc(CN2CC[C@H](O)C2)cc1-c1cccc([N+](=O)[O-])c1 [P-070, (S)-1-(6-Methoxy-3′-nitro-biphenyl-3-ylmethyl)-pyrrolidin-3-ol] | < 5 | 21 to 40 | – | –
9 | COc1ccc(Cc2cnc(O[C@@H]3CCN(C)C3)nc2)c(F)c1-c1cccc(Cl)c1 [P-406, 5-(3′-Chloro-2-fluoro-6-methoxy-biphenyl-3-ylmethyl)-2-((R)-1-methyl-pyrrolidin-3-yloxy)-pyrimidine] | < 5 | < 5 | – | –
10 | COc1ccc(Cn2nnc3ccccc32)cc1-c1cccc([N+](=O)[O-])c1 [P-007, 1-(6-Methoxy-3′-nitro-biphenyl-3-ylmethyl)-1H-benzotriazole] | < 5 | 5 to 20 | – | –
11 | NC(=O)Nc1ccc(Cc2ccc(OC[C@@H]3CCCN3)c(-c3cccc(Cl)c3)c2)cc1 [P-563, {4-[3′-Chloro-6-((S)-1-pyrrolidin-2-ylmethoxy)-biphenyl-3-ylmethyl]-phenyl}-urea] | < 5 | 5 to 20 | – | –
12 | COc1ccc(Cn2c(N)cccc2=O)cc1-c1cccc([N+](=O)[O-])c1 [P-236, 6-Amino-1-(6-methoxy-3′-nitro-biphenyl-3-ylmethyl)-1H-pyridin-2-one] | 20 to 40 | 21 to 40 | – | –
13 | COc1ccc(Cc2ccc(CNC(=O)N3CCN(C)CC3)nc2)c(F)c1-c1cccc(Cl)c1 [P-373, 4-Methyl-piperazine-1-carboxylic acid [5-(3′-chloro-2-fluoro-6-methoxy-biphenyl-3-ylmethyl)-pyridin-2-ylmethyl]-amide] | < 5 | 5 to 20 | – | –
14 | COc1ccc(Cc2cnc(NS(C)(=O)=O)nc2)c(F)c1-c1cccc(C(C)=O)c1 [P-284, N-[5-(3′-Acetyl-2-fluoro-6-methoxy-biphenyl-3-ylmethyl)-pyrimidin-2-yl]-methanesulfonamide] | < 5 | < 5 | – | –
15 | COc1ccc(Cc2ccc(CN)cc2)c(F)c1-c1cccc([N+](=O)[O-])c1 [P-148] | < 5 | < 5 | – | –
16 | COc1ccc(Cn2ccc3ccccc32)cc1-c1cccc([N+](=O)[O-])c1 [P-010, 1-(6-Methoxy-3′-nitro-biphenyl-3-ylmethyl)-1H-indole] | < 5 | < 5 | – | –
17 | COc1ccc(Cc2ccc(CN)c(F)c2)c(F)c1-c1cccc(Cl)c1 [P-275] | < 5 | 5 to 20 | – | –
18 | Nc1ccc(Cc2ccc(OC(F)F)c(-c3cccc(Cl)c3)c2)cn1 [P-611, 5-(3′-Chloro-6-difluoromethoxy-biphenyl-3-ylmethyl)-pyridin-2-ylamine hydrochloride] | < 5 | < 5 | – | –
19 | COc1ccc(Cc2ccc(NCC(N)=O)nc2)c(F)c1-c1cccc(Cl)c1 [P-471] | < 5 | < 5 | – | –
20 | COc1ccc(Cc2ccc(NC(=O)CN(C)C)cc2)c(F)c1-c1cccc([N+](=O)[O-])c1 [P-147] | < 5 | < 5 | – | –
21 | COc1ccc(Cn2ccc(CN)cc2=O)cc1-c1cccc([N+](=O)[O-])c1 [P-213, 4-Aminomethyl-1-(6-methoxy-3′-nitro-biphenyl-3-ylmethyl)-1H-pyridin-2-one] | 5 to 20 | < 5 | – | –
22 | COc1ccc(Cc2ccc(O)cc2)c(F)c1-c1cccc(Cl)c1 [P-216] | < 5 | < 5 | – | –
23 | COc1ccc(Cc2ccc(Br)nc2)c(F)c1-c1cccc(Cl)c1 [P-402, 2-Bromo-5-(3′-chloro-2-fluoro-6-methoxy-biphenyl-3-ylmethyl)-pyridine] | < 5 | < 5 | – | –
24 | COc1ccc(Cc2ccc(C(C)(C)O)nc2)c(F)c1-c1cccc(Cl)c1 [P-587, 2-[5-(3′-Chloro-2-fluoro-6-methoxy-biphenyl-3-ylmethyl)-pyridin-2-yl]-propan-2-ol hydrochloride] | < 5 | < 5 | – | –

Row | Structure (SMILES) | IC50 (PDE4; [1]) [µM] | IC50 (PDE4B; [2]) [µM] | IC50 (PDE4) [µM] | IC50 (PDE4B) [µM]
25 | COc1ccc(Cc2c(C)nn(CCO)c2C)cc1-c1cccc([N+](=O)[O-])c1 [P-088, 2-[4-(6-Methoxy-3′-nitro-biphenyl-3-ylmethyl)-3,5-dimethyl-pyrazol-1-yl]-ethanol] | < 5 | < 5 | – | –
26 | COc1ccc(Cc2ccc(N)cc2)cc1-c1cccc([N+](=O)[O-])c1 [P-113] | < 5 | < 5 | – | –
27 | COc1ccc(Cc2ccc(-n3ccnc3)nc2)c(F)c1-c1cccc(Cl)c1 [P-573, 5-(3′-chloro-2-fluoro-6-methoxy-biphenyl-3-ylmethyl)-2-imidazol-1-yl-pyridine] | < 5 | < 5 | – | –
28 | CC(=O)Nc1ccc(Cc2ccc(OC(F)F)c(-c3cccc(Br)c3)c2F)cc1 [P-313] | < 5 | < 5 | – | –
29 | COc1ccc(Cc2ccc(N)cc2)c(F)c1-c1cccc([N+](=O)[O-])c1 [P-136] | < 5 | < 5 | – | –
30 | COc1ccc(Cc2ccc(C#N)nc2)c(F)c1-c1cccc(Cl)c1 [P-355] | < 5 | < 5 | – | –
31 | COc1cc(F)c(Cc2ccc(F)cc2)cc1-c1cccc([N+](=O)[O-])c1 [P-094, 4-Fluoro-5-(4-fluoro-benzyl)-2-methoxy-3′-nitro-biphenyl] | < 5 | < 5 | – | –
32 | COc1ccc(Cc2ccc(O)cc2)cc1-c1cccc([N+](=O)[O-])c1 [P-142] | < 5 | < 5 | – | –
33 | COc1ccc(Cc2ccc(C#N)cc2)c(O)c1-c1cccc([N+](=O)[O-])c1 [P-138, 4-(2-Hydroxy-6-methoxy-3′-nitro-biphenyl-3-ylmethyl)-benzonitrile] | < 5 | < 5 | – | –
34 | COc1ccc(Cn2ccc(C#N)cc2=O)cc1-c1cccc([N+](=O)[O-])c1 [P-196, 1-(6-Methoxy-3′-nitro-biphenyl-3-ylmethyl)-2-oxo-1,2-dihydro-pyridine-4-carbonitrile] | < 5 | 5 to 20 | – | –
35 | COc1ccc(Cc2ccc(OC(N)=O)cc2)c(F)c1-c1cccc(Cl)c1 [P-221] | – | – | < 5 | < 5
36 | COc1ccc(Cc2ccc(CNC(N)=O)c(F)c2)c(F)c1-c1cccc(C(C)=O)c1 [P-330] | < 5 | < 5 | – | –
37 | COc1ccc(CC2CCCS2)c(F)c1-c1cccc([N+](=O)[O-])c1 (stereo not drawn) [P-128, 2-(2-fluoro-6-methoxy-3′-nitro-biphenyl-3-ylmethyl)-tetrahydro-thiophene] | < 5 | < 5 | – | –
38 | COc1ccc(Sc2ccc(NC(N)=O)cc2)cc1-c1cccc(Cl)c1 [P-540, [4-(3′-Chloro-6-methoxy-biphenyl-3-ylsulfanyl)-phenyl]-urea] | < 5 | < 5 | – | –
39 | COc1ccc(Cn2cncc2C(N)=O)c(F)c1-c1cccc(Cl)c1 [P-535, 3-(3′-Chloro-2-fluoro-6-methoxy-biphenyl-3-ylmethyl)-3H-imidazole-4-carboxylic acid amide] | < 5 | < 5 | – | –
40 | COc1ccc(Cc2ccnn2C)cc1-c1ccc2c(c1)OC(F)(F)O2 [P-115, 5-[3-(2,2-Difluoro-benzo[1,3]dioxol-5-yl)-4-methoxy-benzyl]-1-methyl-1H-pyrazole] | < 5 | < 5 | – | –
41 | COc1ccc(Cn2cc(C(N)=O)ccc2=O)cc1-c1cccc([N+](=O)[O-])c1 [P-212, 1-(6-Methoxy-3′-nitro-biphenyl-3-ylmethyl)-6-oxo-1,6-dihydro-pyridine-3-carboxylic acid amide] | 5 to 20 | 5 to 20 | – | –
42 | NC(=O)Nc1ccc(Cc2ccc(O)c(-c3cccc([N+](=O)[O-])c3)c2F)cc1 [P-508] | < 5 | 5 to 20 | – | –
43 | COc1ccc(Cc2ccncc2)cc1-c1cccc([N+](=O)[O-])c1 [P-008] | < 5 | < 5 | – | –
44 | COc1ccc(Cn2cnc([N+](=O)[O-])c2)c(F)c1-c1cccc(Cl)c1 [P-536, 1-(3′-Chloro-2-fluoro-6-methoxy-biphenyl-3-ylmethyl)-4-nitro-1H-imidazole] | < 5 | < 5 | – | –
45 | COc1ccc(Cc2ccnn2C)cc1-c1ccc2c(c1)OCO2 [P-075, 5-(3-Benzo[1,3]dioxol-5-yl-4-methoxy-benzyl)-1-methyl-1H-pyrazole] | < 5 | < 5 | – | –
46 | COc1ccc(Cc2cccc(N)c2)c(F)c1-c1cccc(Cl)c1 [P-234] | < 5 | < 5 | – | –
47 | COc1ccc(Cc2ccc(N3CCNC3=O)nc2)c(F)c1-c1cccc(C(C)=O)c1 [P-361, 1-[5-(3′-Acetyl-2-fluoro-6-methoxy-biphenyl-3-ylmethyl)-pyridin-2-yl]-imidazolidin-2-one] | < 5 | < 5 | – | –
48 | COc1ccc(Cc2ccc(F)cc2)cc1-c1cccc(-c2nnco2)c1 [P-118, 2-[5′-(4-Fluoro-benzyl)-2′-methoxy-biphenyl-3-yl]-[1,3,4]oxadiazole] | < 5 | < 5 | – | –
